Among the test systems are HCT-116 colon; HL-60(TB) leukemia; SF-295 CNS; SF-539 CNS; SNB-75 CNS; SW-620 colon; T-47D breast; UACC-62 melanoma; MOLT-4 leukemia; UACC-257 melanoma.
What all share (assay): NCI-60 cell line screen, 48 h

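96-well plates; 48 h exposure; 5 concentrations. Endpoints by linear interpolation between flanking doses. Not reached: highest tested concentration assigned. Here, GI50 denotes the concentration required for 50% inhibition of growth. TGI denotes the concentration required for complete inhibition of growth.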

For the compound `O=S(=O)(NCCCNc1cc(-c2cn(-c3ccccc3)nc2-c2cccc(O)c2)ccn1)c1cccc2ccccc12`, the GI50 with HCT-116 colon was 2.8 µM; in the experiment with HL-60(TB) leukemia, 2.7 µM; in the experiment on SF-295 CNS, 1.64 µM; in the experiment on SF-539 CNS, 2.43 µM; in the experiment with SNB-75 CNS it was 2.35 µM; in the experiment on SW-620 colon it was 2.75 µM. Moreover, the GI50 was 2.14 µM with T-47D breast and 2.34 µM in the experiment on UACC-62 melanoma. Also, the TGI in the experiment with HCT-116 colon is 12.4 µM; in the experiment with HL-60(TB) leukemia, 7.2 µM; in the experiment on SF-295 CNS, 4.32 µM; in the experiment with SF-539 CNS, 20.2 µM; in the experiment on SNB-75 CNS, above 100 µM; in the experiment with SW-620 colon, 10 µM. For the same compound, the TGI turned out to be 8.53 µM in the experiment with T-47D breast and 8.38 µM with UACC-62 melanoma.

Take `COc1cc([C@@H]2c3cc4c(cc3[C@H](OC(C)=O)[C@H]3COC(=O)[C@H]23)OCO4)cc(OC)c1OC`: the GI50 in the experiment on HL-60(TB) leukemia was 0.0223 µM; in the experiment with MOLT-4 leukemia it was 0.0385 µM; with SF-295 CNS it was 0.026 µM; in the experiment on SNB-75 CNS, 8.43 µM; in the experiment on SW-620 colon it was 0.0334 µM; in the experiment on T-47D breast, 0.0669 µM. Also, the GI50 in the experiment with UACC-257 melanoma was above 100 µM; in the experiment with UACC-62 melanoma, 0.0598 µM. Also, the TGI in the experiment on HL-60(TB) leukemia was 0.0602 µM; in the experiment with MOLT-4 leukemia, above 100 µM; in the experiment on SF-295 CNS, above 100 µM; with SNB-75 CNS it was above 100 µM; in the experiment on SW-620 colon it was above 100 µM; in the experiment on T-47D breast, above 100 µM. Further, the TGI in the experiment with UACC-257 melanoma and with UACC-62 melanoma was above 100 µM in each case.

As for `NNC(=O)CCC(=O)Nc1ccc(Cl)cc1Cl`, the TGI with HCT-116 colon, in the experiment with HL-60(TB) leukemia, in the experiment with MOLT-4 leukemia, with SF-295 CNS, in the experiment on SF-539 CNS and with SNB-75 CNS was above 100 µM throughout. Besides, the TGI in the experiment on SW-620 colon, with UACC-257 melanoma and in the experiment on UACC-62 melanoma was above 100 µM throughout.

As to `CCN(CC)C(=O)CNC(=O)OC(C)(C)C`, the TGI with HCT-116 colon, in the experiment on HL-60(TB) leukemia, in the experiment on MOLT-4 leukemia, in the experiment with SF-295 CNS, with SF-539 CNS and with SNB-75 CNS was above 100 µM throughout. The TGI in the experiment on SW-620 colon, with UACC-257 melanoma and in the experiment on UACC-62 melanoma was above 100 µM in each case.

Turning to `CN(C)Cc1cccc(CN(C)C)[c]1[Sn]([Br])([c]1ccccc1)[c]1ccccc1`, the GI50 in the experiment with HCT-116 colon was 4.31 µM; with HL-60(TB) leukemia, 1.76 µM; in the experiment on MOLT-4 leukemia it was 5.02 µM; in the experiment with SF-295 CNS, 14.8 µM; in the experiment with SF-539 CNS, 15.2 µM; in the experiment on SNB-75 CNS it was 21.7 µM. Besides, the GI50 with SW-620 colon was 13.5 µM; with T-47D breast it was 4.72 µM; in the experiment on UACC-257 melanoma, 16 µM. Besides, the TGI in the experiment on HCT-116 colon is 17.3 µM; with HL-60(TB) leukemia it was 3.93 µM; with MOLT-4 leukemia, 20.5 µM; with SF-295 CNS, 32.1 µM; in the experiment with SF-539 CNS it was 30.3 µM; in the experiment with SNB-75 CNS, 66.2 µM. Moreover, the TGI with SW-620 colon amounted to 29.7 µM; in the experiment with T-47D breast, 21.5 µM; in the experiment on UACC-257 melanoma, 53.7 µM.

For the compound `N#C/C(=C/C=C/c1ccccc1)S(=O)c1ccccc1` (centres undefined), the GI50 in the experiment with HL-60(TB) leukemia was 0.288 µM; with MOLT-4 leukemia it was 0.338 µM; in the experiment on SF-295 CNS, 1.44 µM; with SF-539 CNS it was 0.267 µM; in the experiment with SNB-75 CNS it was 0.904 µM; in the experiment on SW-620 colon it was 0.337 µM. For the same compound, the figures for the GI50 in the experiment on T-47D breast, in the experiment with UACC-257 melanoma and with UACC-62 melanoma were 0.298 µM, 0.845 µM and 0.435 µM, respectively. The TGI came out at 2.25 µM with HL-60(TB) leukemia; 3.64 µM in the experiment with MOLT-4 leukemia; 3.14 µM with SF-295 CNS; 1.07 µM in the experiment with SF-539 CNS; 3.01 µM with SNB-75 CNS; 1.13 µM with SW-620 colon. The results for the TGI in the experiment with T-47D breast, with UACC-257 melanoma and with UACC-62 melanoma were 5.62 µM, 2.41 µM and 1.89 µM, respectively.

For the compound `O=C1C(Cl)=C(Nc2cccc(O)c2)C(=O)N1c1cccc(Cl)c1`, the GI50 is 21.7 µM in the experiment with HCT-116 colon; 23 µM in the experiment on MOLT-4 leukemia; 61.6 µM in the experiment with SF-295 CNS; 39 µM with SW-620 colon; 67.2 µM in the experiment with T-47D breast; 27 µM with UACC-62 melanoma. The TGI in the experiment with HCT-116 colon was above 100 µM; with MOLT-4 leukemia it was 71.4 µM; in the experiment with SF-295 CNS, above 100 µM; in the experiment on SW-620 colon, above 100 µM; in the experiment on T-47D breast, above 100 µM; in the experiment on UACC-62 melanoma it was above 100 µM.

Take `O=C1c2cccc3cc([N+](=O)[O-])cc(c23)C(=O)N1CCN1CCCC1`: the GI50 in the experiment on HCT-116 colon is 0.441 µM; in the experiment with HL-60(TB) leukemia, 0.404 µM; in the experiment on MOLT-4 leukemia it was 0.237 µM; in the experiment with SF-295 CNS, 0.227 µM; in the experiment with SF-539 CNS, 0.487 µM; in the experiment with SNB-75 CNS, 0.388 µM. Also, the results for the GI50 in the experiment on SW-620 colon, in the experiment with T-47D breast and in the experiment on UACC-62 melanoma were 0.389 µM, 0.302 µM and 0.322 µM, respectively. For the same compound, the TGI in the experiment on HCT-116 colon is above 100 µM; in the experiment on HL-60(TB) leukemia, above 100 µM; in the experiment on MOLT-4 leukemia, above 100 µM; with SF-295 CNS, 0.734 µM; with SF-539 CNS, 2.04 µM; in the experiment with SNB-75 CNS, 2.27 µM. The TGI in the experiment on SW-620 colon worked out at 5.19 µM; in the experiment on T-47D breast, 2.28 µM; in the experiment with UACC-62 melanoma it was 1.71 µM.

For `COC1OC(CBr)C(OC(c2ccccc2)(c2ccccc2)c2ccccc2)C(OC(c2ccccc2)(c2ccccc2)c2ccccc2)C1OC(c1ccccc1)(c1ccccc1)c1ccccc1` (centres undefined), the TGI with HCT-116 colon was above 100 µM; in the experiment with HL-60(TB) leukemia, above 100 µM; in the experiment on MOLT-4 leukemia it was above 100 µM; with SF-295 CNS, above 100 µM; in the experiment on SF-539 CNS it was 68.7 µM; with SW-620 colon, above 100 µM. The TGI in the experiment with T-47D breast, in the experiment on UACC-257 melanoma and with UACC-62 melanoma was above 100 µM each time.

Turning to `COc1ccc(-c2csc(NC(=O)N3CCN(c4cc5c(cc4F)c(=O)c(C(=O)O)cn5C4CC4)CC3)n2)cc1`, the GI50 was 1.72 µM in the experiment on HCT-116 colon; 2.54 µM with MOLT-4 leukemia; 2.25 µM in the experiment with SF-295 CNS; 1.8 µM in the experiment on SF-539 CNS; 2.47 µM in the experiment on SNB-75 CNS; 5.04 µM in the experiment with SW-620 colon. For the same compound, the GI50 in the experiment on T-47D breast was 1.57 µM. The TGI in the experiment on HCT-116 colon is above 100 µM; in the experiment on MOLT-4 leukemia, 9.42 µM; in the experiment with SF-295 CNS it was 8.79 µM; with SF-539 CNS it was above 100 µM; with SNB-75 CNS it was 17.4 µM; in the experiment with SW-620 colon, above 100 µM. Besides, in the experiment with T-47D breast, the TGI was above 100 µM.

Values taken from PubChem BioAssay (NCI).
